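Assay format: 96-well plates, 48-hour exposure. TGI is the concentration that stops growth completely.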
Legend:
Test in all cases: inhibition of tumour cell growth, NCI panel, 48 h
M19-MEL melanoma = test system: M19-MEL melanoma
SN12C renal = test system: SN12C renal
DMS 114 small cell lung = test system: DMS 114 small cell lung
LXFL 529 NSCLC = test system: LXFL 529 NSCLC
XF 498 CNS = test system: XF 498 CNS
SNB-78 CNS = test system: SNB-78 CNS
NCI-H460 lung = test system: NCI-H460 lung

Work on `CCN(CC)CCCNC(=O)c1ccccc1Nc1c(Cl)cccc1Cl` yielded a TGI (M19-MEL melanoma) of 11 µM, a TGI (SN12C renal) of 27.2 µM and a TGI (DMS 114 small cell lung) of 26.2 µM. The TGI (LXFL 529 NSCLC) was 28.8 µM, the TGI (XF 498 CNS) was 9.71 µM and the TGI (SNB-78 CNS) was 31.7 µM.

In the case of `O=C(N/N=C/c1cc(Cl)cc(Cl)c1[O-])c1ccccc1O.O=C(N/N=C/c1cc(Cl)cc(Cl)c1[O-])c1ccccc1O.[Fe+2]`, the TGI (NCI-H460 lung) is reported as 38.5 µM.
